Patent publication US20230115611A1, “TREATMENT OF PAIN AND VASOCONSTRICTION” (Aisa Pharma, Inc., priority 2020, published 2023)

Assays:
human Nav 1.7 = molecular target: T1, human Nav 1.7 (Homo sapiens, UniProt Q15858); test: Nav 1.7 sodium channel inhibition, automated patch clamp (QPATCH II), two pulse voltage protocol; format: cell-based; conditions: for ranking of the compounds in terms of efficacy: Nav 1.7 inhibition at Cmax; for Mean % inhibition-closed state: closed state (P1) of Nav 1.7; for Mean % inhibition-closed state / Mean % inhibition-inactivated state: CHO cells, compound at/around Cmax concentration as in Table 4; for Mean % inhibition-inactivated state: inactivated state (P2) of Nav 1.7
T1 construct: expressed in transfected cells
Experimental: Chinese Hamster Ovary (CHO) cells stably expressing human Nav 1.7 were cultured according to the manufacturer's standard operating procedure (SOP) and enzymatically lifted into solution following Sophion's standard SOP.
Voltage protocol 1 (VP1): A voltage protocol designed to generate a current voltage relationship and to estimate the half inactivation potential (V1/2) was used. The first voltage protocol was used as quality control and the latter was used later in the experiment (see below).
Voltage protocol 2 (VP2): Two pulse voltage protocol. FIG. 2 depicts a two pulse voltage protocol. The line marked with an asterisk indicates the voltage that was applied to the cell. In the beginning, all channels were in the closed state (V=−120 mV). A depolarization step to V=10 mV (P1) activated all channels and produced the largest possible current. Next, cells were kept at the V1/2 value for 1 s. […] A second stimulation to V=−10 mV activated all channels that were in the closed state (50%). Compound effects were assessed at both P1 and P2. State dependent compounds will show a different degree of inhibition at the two different pulses. This protocol was repeated every 10 s to monitor compound effects on the channel.

[1] = oral dose 10 mg; reference value; cited from earlier work

T1 sequence (Q15858 whole entry): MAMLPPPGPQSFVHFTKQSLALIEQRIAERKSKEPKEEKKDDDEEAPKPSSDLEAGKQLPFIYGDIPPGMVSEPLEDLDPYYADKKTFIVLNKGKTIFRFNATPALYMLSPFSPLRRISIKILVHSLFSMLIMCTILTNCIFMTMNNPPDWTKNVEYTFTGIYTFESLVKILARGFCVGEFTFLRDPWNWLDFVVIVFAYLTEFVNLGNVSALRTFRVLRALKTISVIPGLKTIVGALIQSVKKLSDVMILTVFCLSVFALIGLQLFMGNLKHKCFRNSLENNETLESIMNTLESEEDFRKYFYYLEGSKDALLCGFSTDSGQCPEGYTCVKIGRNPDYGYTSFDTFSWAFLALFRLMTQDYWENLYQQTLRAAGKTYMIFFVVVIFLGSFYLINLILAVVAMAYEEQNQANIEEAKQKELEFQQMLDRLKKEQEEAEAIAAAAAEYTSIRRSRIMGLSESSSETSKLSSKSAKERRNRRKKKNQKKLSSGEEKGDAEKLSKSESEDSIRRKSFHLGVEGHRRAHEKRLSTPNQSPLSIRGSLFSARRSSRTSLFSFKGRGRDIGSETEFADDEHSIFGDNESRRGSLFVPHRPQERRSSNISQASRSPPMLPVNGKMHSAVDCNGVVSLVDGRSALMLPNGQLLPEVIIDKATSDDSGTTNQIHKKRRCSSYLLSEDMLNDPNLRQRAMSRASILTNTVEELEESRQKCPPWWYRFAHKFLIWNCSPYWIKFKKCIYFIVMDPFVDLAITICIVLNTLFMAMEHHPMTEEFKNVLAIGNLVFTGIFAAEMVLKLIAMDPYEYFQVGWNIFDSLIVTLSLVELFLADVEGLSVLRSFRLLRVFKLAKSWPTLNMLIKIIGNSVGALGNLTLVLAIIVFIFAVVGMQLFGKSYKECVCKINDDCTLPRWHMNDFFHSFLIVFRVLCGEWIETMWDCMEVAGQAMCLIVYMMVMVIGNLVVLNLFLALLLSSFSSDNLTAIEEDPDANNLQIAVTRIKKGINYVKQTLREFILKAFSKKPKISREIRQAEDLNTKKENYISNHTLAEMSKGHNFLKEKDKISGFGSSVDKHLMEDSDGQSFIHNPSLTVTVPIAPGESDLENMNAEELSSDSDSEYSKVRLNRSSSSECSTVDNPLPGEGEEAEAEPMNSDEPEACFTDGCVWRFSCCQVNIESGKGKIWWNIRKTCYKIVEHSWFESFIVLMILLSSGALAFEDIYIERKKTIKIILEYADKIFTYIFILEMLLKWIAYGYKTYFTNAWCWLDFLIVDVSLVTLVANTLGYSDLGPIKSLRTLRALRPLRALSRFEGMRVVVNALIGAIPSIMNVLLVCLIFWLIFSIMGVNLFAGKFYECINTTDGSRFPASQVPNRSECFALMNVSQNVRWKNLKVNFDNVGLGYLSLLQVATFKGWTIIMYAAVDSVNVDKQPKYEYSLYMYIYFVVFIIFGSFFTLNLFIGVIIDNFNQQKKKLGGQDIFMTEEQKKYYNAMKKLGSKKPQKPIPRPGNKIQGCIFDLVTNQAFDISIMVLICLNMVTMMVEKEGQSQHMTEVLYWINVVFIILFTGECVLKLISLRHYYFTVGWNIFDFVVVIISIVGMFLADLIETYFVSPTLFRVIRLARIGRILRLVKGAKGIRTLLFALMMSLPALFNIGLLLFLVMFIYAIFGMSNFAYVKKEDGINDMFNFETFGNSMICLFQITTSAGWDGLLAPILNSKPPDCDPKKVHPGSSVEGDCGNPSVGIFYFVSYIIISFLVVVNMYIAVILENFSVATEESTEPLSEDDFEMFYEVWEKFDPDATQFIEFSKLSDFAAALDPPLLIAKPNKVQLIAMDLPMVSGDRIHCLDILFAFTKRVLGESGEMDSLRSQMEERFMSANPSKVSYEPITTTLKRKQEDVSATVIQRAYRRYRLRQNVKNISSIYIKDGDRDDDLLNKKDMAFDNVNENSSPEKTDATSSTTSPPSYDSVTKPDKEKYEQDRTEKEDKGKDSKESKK

## NCC1(CC(=O)O)CCCCC1 [gabapentin]
Human Nav 1.7
  ranking of the compounds in terms of efficacy: gabapentin<amlodipine<cilnidipine nifedipine
  Mean % inhibition-closed state: −5.2%
  Mean % inhibition-inactivated state: 6.3%

## C[S+](C)[O-] [DMSO]
Human Nav 1.7
  Mean % inhibition-closed state: −2.7%
  Mean % inhibition-inactivated state: 38.7%

## COCCOC(=O)C1=C(C)NC(C)=C(C(=O)OC/C=C/c2ccccc2)C1c1cccc([N+](=O)[O-])c1 (centres unmarked) [cilnidipine]
Human Nav 1.7
  activity at the sodium channel subunit Nav 1.7: clinically meaningful activity
  ranking of the compounds in terms of efficacy: gabapentin<amlodipine<cilnidipine nifedipine
  Mean % inhibition-closed state: −6.7%
  Mean % inhibition-inactivated state: 18.5%
Human Nav 1.7; cilnidipine at 20 mg dose
  activity at Nav 1.7 compared with bupivacaine: appears to be greater than a sodium channel blocker and local anesthetic, bupivacaine
  activity at Nav 1.7 compared with gabapentin: greater than gabapentin
Human Nav 1.7; comparable clinical doses (amlodipine 5 mg to cilnidipine 10 mg and amlodipine 10 mg to cilnidipine 20 mg)
  activity at Nav 1.7 relative to amlodipine: about 5 ×
Human Nav 1.7; plasma concentrations achieved with 10 mg cilnidipine versus clinically comparable 5 mg amlodipine
  higher relative inhibition of Nav 1.7 than amlodipine: 9.5%
[1]
  Cmax: 5.9 ± 1.2 ng/mL

## CCN(CC)CC(=O)Nc1c(C)cccc1C [lidocaine]
Human Nav 1.7
  Mean % inhibition-closed state: 40.9%
  Mean % inhibition-inactivated state: 89.0%

## CCCCN1CCCCC1C(=O)Nc1c(C)cccc1C (centres unmarked) [bupivacaine]
Human Nav 1.7
  Mean % inhibition-closed state: 2.5%
  Mean % inhibition-inactivated state: 20%

## CCOC(=O)C1=C(COCCN)NC(C)=C(C(=O)OC)C1c1ccccc1Cl (centres unmarked) [amlodipine]
Human Nav 1.7
  Mean % inhibition-closed state: −7.4%
  Mean % inhibition-inactivated state: 7.8%
